Laboratory results published in US20100119483A1, “PEPTIDE VIRAL ENTRY INHIBITORS” (Schering Corporation, priority 2004, published 2010).
Several values for one entry are separate records, joined by “and”; a condition that tells them apart may be missing. Identical values can stand only once. Ends that are not written are not given here.

Key:
[1] = test system: amphotropic murine leukemia virus; assay: AMLV pseudotyped virus entry counter-screen, same infection protocol; format: cell-based; conditions: for luciferase units, AMLV entry: duplicates, listed as scrambled SEQ ID NO: 106; for AMLVpp % inh: peptide library screen, cell entry inhibition vs uninhibited control
Procedure, shortened: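 Huh7 hepatoma cells pre-incubated with peptide 1 h at 37 °C, then infected with AMLV pseudotyped virus and cultured 72 h at 37 °C, 5% CO2 before luciferase read-out. Peptides screened at 100 ug/ml, then 10-point 3-fold titrations from 100 ug/ml.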

HCV pseudoparticles = assay: HCV pseudoparticle (HCVpp) entry assay in Huh7 hepatoma cells, luciferase readout; format: cell-based, hepatitis C virus; conditions: for luciferase units, HCV entry: duplicates, listed as scrambled SEQ ID NO: 138; for HCVpp % inh: peptide library screen, first screened at 100 ug/ml, cell entry inhibition vs uninhibited control
Procedure, shortened: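 Huh7 cells were pre-treated with peptide for 1 h at 37 °C before exposure to HCV E1/E2-pseudotyped HIV luciferase particles made in 293T cells, followed by 72 h culture and luciferase readout. Peptides were tested at 10 points, 3-fold, from 100 ug/ml; particles lacking envelope served as non-specific entry control.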

Substance	AMLVpp % inh [1]	HCVpp % inh (HCV pseudoparticles)	further results
LKLFEVYLILWLA (HCV peptide) [SEQ ID NO: 138, scrambled 13-mer]	–	–	luciferase units, AMLV entry ([1]; 0.04115226 uM of peptide): 43854 luciferase units and 39721 luciferase units and 46556 luciferase units and 44480 luciferase units and 40734 luciferase units and 47413 luciferase units; luciferase units, AMLV entry ([1]; 0.1234568 uM of peptide): 39298 luciferase units and 28711 luciferase units and 46132 luciferase units and 49974 luciferase units and 42958 luciferase units and 51726 luciferase units; luciferase units, AMLV entry ([1]; 0.3703704 uM of peptide): 48158 luciferase units and 45212 luciferase units and 49139 luciferase units and 49219 luciferase units and 51358 luciferase units and 50551 luciferase units; luciferase units, AMLV entry ([1]; 1.111111 uM of peptide): 49084 luciferase units and 39443 luciferase units and 53349 luciferase units and 51341 luciferase units and 46069 luciferase units and 46019 luciferase units; luciferase units, AMLV entry ([1]; 3.333333 uM of peptide): 50674 luciferase units and 41738 luciferase units and 60859 luciferase units and 50020 luciferase units and 51236 luciferase units and 49388 luciferase units; luciferase units, AMLV entry ([1]; 30 uM of peptide): 87785 luciferase units and 60410 luciferase units and 83010 luciferase units and 77083 luciferase units and 85612 luciferase units and 79287 luciferase units; luciferase units, HCV entry (HCV pseudoparticles; 0.04115226 uM of peptide): 12287 luciferase units and 13159 luciferase units and 13838 luciferase units and 13589 luciferase units and 10645 luciferase units and 10230 luciferase units; luciferase units, HCV entry (HCV pseudoparticles; 0.1234568 uM of peptide): 9257 luciferase units and 8961 luciferase units and 11382 luciferase units and 10746 luciferase units and 7229 luciferase units and 6598 luciferase units; luciferase units, HCV entry (HCV pseudoparticles; 0.3703704 uM of peptide): 7620 luciferase units and 8597 luciferase units and 9180 luciferase units and 5716 luciferase units and 8494 luciferase units and 8291 luciferase units; luciferase units, HCV entry (HCV pseudoparticles; 1.111111 uM of peptide): 6456 luciferase units and 7681 luciferase units and 9683 luciferase units and 9482 luciferase units and 9053 luciferase units and 7359 luciferase units; luciferase units, HCV entry (HCV pseudoparticles; 3.333333 uM of peptide): 7729 luciferase units and 11535 luciferase units and 12632 luciferase units and 8653 luciferase units and 8028 luciferase units and 10288 luciferase units; luciferase units, HCV entry (HCV pseudoparticles; 30 uM of peptide): 7047 luciferase units and 5340 luciferase units and 7406 luciferase units and 5158 luciferase units and 5107 luciferase units and 5826 luciferase units; activity compared to the wild type 13-mer peptide (HCV pseudoparticles; HCVpp entry inhibition, in words): still showed some activity, though weakened
P-C-G-I-V-P-A-A-Q-V-C-G-P-V-Y-C [SEQ ID NO: 46]	−2%	29%	–
L-E-D-R-D-R-S-E-L-S-P-L-L-L-S-T (LEDRDRSELSPLLLST; not fully specified (C-terminus); printed as L-E-D-R-D-R-S-E-L-S-P-L-L-L-S-T) [SEQ ID NO: 69]	1%	−15%	–
L-P-A-L-S-T-G-L-I-H-L-H-Q-N-V-V [SEQ ID NO: 73]	0%	19%	–
C-N-C-S-I-Y-P-G-H-V-T-G-H-R-M-A [SEQ ID NO: 19]	26%	49%	–
Y-V-G-D-L-C-G-S-V-F-L-V-A-Q-L-F [SEQ ID NO: 15]	−31%	16%	–
A-A-L-C-S-A-M-Y-V-G-D-L-C-G-S-V [SEQ ID NO: 14]	−42%	39%	–
S-W-G-E-N-E-T-D-V-L-L-L-N-N-T-R [SEQ ID NO: 51]	34%	23%	–
I-F-K-V-R-M-Y-V-G-G-V-E-H-R-L-E (IFKVRMYVGGVEHRLE; HCV peptide) [SEQ ID NO: 65]	−62%	19%	–
Q-K-I-Q-L-V-N-T-N-G-S-W-H-I-N-R (QKIQLVNTNGSWHINR; HCV peptide) [SEQ ID NO: 34]	13%	6%	–
D-C-S-N-A-S-I-V-Y-E-A-A-D-M-I-M [SEQ ID NO: 5]	−2%	−4%	–
